In the NIST ThermoML archive (doi:10.1016/j.jct.2008.10.010):
± gives the expanded uncertainty stated by the source.

Assay: molar heat capacity at constant pressure; xn = mol fraction of the nth substance listed
Details: 101.3 kPa, Liquid, Small sample (50 mg) DSC

CCC(C)(C)O [2-methylbutan-2-ol] + CCCCCCC
Details	molar heat capacity at constant pressure [J/K/mol]
327.15 K, x1 = 0.1547	258.26 ± 4
327.15 K, x1 = 0.2993	269.94 ± 4.2
327.15 K, x1 = 0.4051	274.66 ± 4.3
327.15 K, x1 = 0.4986	277.47 ± 4.3
327.15 K, x1 = 0.5981	279.08 ± 4.3
327.15 K, x1 = 0.7015	280.02 ± 4.3
327.15 K, x1 = 0.8023	279.59 ± 4.3
327.15 K, x1 = 0.9139	278.56 ± 4.3
327.15 K, x1 = 0.9609	277.44 ± 4.3
328.15 K, x1 = 0.0061	236.22 ± 3.7
328.15 K, x1 = 0.0249	237.72 ± 3.7
328.15 K, x1 = 0.0494	242.15 ± 3.8
328.15 K, x1 = 0.1	251.24 ± 3.9
328.15 K, x1 = 0.1547	258.56 ± 4
328.15 K, x1 = 0.1999	263.19 ± 4.1
328.15 K, x1 = 0.2993	270.46 ± 4.2
328.15 K, x1 = 0.4051	275.23 ± 4.3
328.15 K, x1 = 0.4986	278.16 ± 4.3
328.15 K, x1 = 0.5981	279.9 ± 4.3
328.15 K, x1 = 0.7015	280.91 ± 4.3
328.15 K, x1 = 0.8023	280.5 ± 4.3
328.15 K, x1 = 0.9139	279.46 ± 4.3
328.15 K, x1 = 0.9609	278.39 ± 4.3
329.14 K, x1 = 0.0061	236.63 ± 3.7
329.14 K, x1 = 0.0249	238.11 ± 3.7
329.14 K, x1 = 0.0494	242.34 ± 3.8
329.14 K, x1 = 0.1	251.42 ± 3.9
329.14 K, x1 = 0.1547	258.8 ± 4
329.14 K, x1 = 0.1999	263.54 ± 4.1
329.14 K, x1 = 0.2993	270.92 ± 4.2
329.14 K, x1 = 0.4051	275.78 ± 4.3
329.14 K, x1 = 0.4986	278.83 ± 4.3
329.14 K, x1 = 0.5981	280.59 ± 4.3
329.14 K, x1 = 0.7015	281.67 ± 4.4
329.14 K, x1 = 0.8023	281.37 ± 4.4
329.14 K, x1 = 0.9139	280.33 ± 4.3
329.14 K, x1 = 0.9609	279.29 ± 4.3
330.14 K, x1 = 0.0061	237.14 ± 3.7
330.14 K, x1 = 0.1	251.61 ± 3.9
330.14 K, x1 = 0.1547	259.04 ± 4
330.14 K, x1 = 0.2993	271.42 ± 4.2
330.14 K, x1 = 0.4986	279.45 ± 4.3
330.14 K, x1 = 0.5981	281.32 ± 4.4
330.14 K, x1 = 0.7015	282.46 ± 4.4
330.14 K, x1 = 0.8023	282.14 ± 4.4
330.14 K, x1 = 0.9139	281.17 ± 4.4
330.14 K, x1 = 0.9609	280.09 ± 4.3
330.15 K, x1 = 0.0249	238.44 ± 3.7
330.15 K, x1 = 0.0494	242.58 ± 3.8
330.15 K, x1 = 0.1999	263.87 ± 4.1
330.15 K, x1 = 0.4051	276.4 ± 4.3
331.15 K, x1 = 0.0061	237.49 ± 3.7
331.15 K, x1 = 0.0249	238.7 ± 3.7
331.15 K, x1 = 0.0494	242.66 ± 3.8
331.15 K, x1 = 0.1	251.73 ± 3.9
331.15 K, x1 = 0.1547	259.17 ± 4
331.15 K, x1 = 0.1999	264.08 ± 4.1
331.15 K, x1 = 0.2993	271.78 ± 4.2
331.15 K, x1 = 0.4051	276.82 ± 4.3
331.15 K, x1 = 0.4986	280.03 ± 4.3
331.15 K, x1 = 0.5981	282 ± 4.4
331.15 K, x1 = 0.7015	283.13 ± 4.4
331.15 K, x1 = 0.8023	282.9 ± 4.4
331.15 K, x1 = 0.9139	281.93 ± 4.4
331.15 K, x1 = 0.9609	280.9 ± 4.3
332.11 K, x1 = 0.4051	277.29 ± 4.3
332.14 K, x1 = 0.0061	237.91 ± 3.7
332.14 K, x1 = 0.0249	239.06 ± 3.7
332.14 K, x1 = 0.0494	242.88 ± 3.8
332.14 K, x1 = 0.1	251.74 ± 3.9
332.14 K, x1 = 0.1547	259.34 ± 4
332.14 K, x1 = 0.1999	264.36 ± 4.1
332.14 K, x1 = 0.2993	272.13 ± 4.2
332.14 K, x1 = 0.4986	280.59 ± 4.3
332.14 K, x1 = 0.5981	282.58 ± 4.4
332.14 K, x1 = 0.7015	283.9 ± 4.4
332.14 K, x1 = 0.8023	283.62 ± 4.4
332.14 K, x1 = 0.9139	282.68 ± 4.4
332.14 K, x1 = 0.9609	281.66 ± 4.4
333.14 K, x1 = 0.0061	238.38 ± 3.7
333.14 K, x1 = 0.0249	239.45 ± 3.7
333.14 K, x1 = 0.0494	243.08 ± 3.8
333.14 K, x1 = 0.1	251.95 ± 3.9
333.14 K, x1 = 0.1547	259.59 ± 4
333.14 K, x1 = 0.1999	264.68 ± 4.1
333.14 K, x1 = 0.2993	272.54 ± 4.2
333.14 K, x1 = 0.4051	277.88 ± 4.3
333.14 K, x1 = 0.4986	281.17 ± 4.4
333.14 K, x1 = 0.7015	284.62 ± 4.4
333.14 K, x1 = 0.8023	284.48 ± 4.4
333.14 K, x1 = 0.9139	283.56 ± 4.4
333.14 K, x1 = 0.9609	282.52 ± 4.4
333.15 K, x1 = 0.5981	283.29 ± 4.4
334.04 K, x1 = 0.0249	239.87 ± 3.7
334.15 K, x1 = 0.0061	238.94 ± 3.7
334.15 K, x1 = 0.0494	243.42 ± 3.8
334.15 K, x1 = 0.1	252.08 ± 3.9
334.15 K, x1 = 0.1547	259.81 ± 4
334.15 K, x1 = 0.1999	264.99 ± 4.1
334.15 K, x1 = 0.2993	272.99 ± 4.2
334.15 K, x1 = 0.4051	278.43 ± 4.3
334.15 K, x1 = 0.4986	281.83 ± 4.4
334.15 K, x1 = 0.5981	284.02 ± 4.4
334.15 K, x1 = 0.7015	285.36 ± 4.4
334.15 K, x1 = 0.8023	285.27 ± 4.4
334.15 K, x1 = 0.9139	284.32 ± 4.4
334.15 K, x1 = 0.9609	283.36 ± 4.4
334.33 K, x1 = 0.0249	239.98 ± 3.7
335.14 K, x1 = 0.0061	239.28 ± 3.7
335.14 K, x1 = 0.0249	240.2 ± 3.7
335.14 K, x1 = 0.0494	243.54 ± 3.8
335.14 K, x1 = 0.1	252.23 ± 3.9
335.14 K, x1 = 0.1547	259.88 ± 4
335.14 K, x1 = 0.1999	265.1 ± 4.1
335.14 K, x1 = 0.2993	273.19 ± 4.2
335.14 K, x1 = 0.4051	278.76 ± 4.3
335.14 K, x1 = 0.4986	282.26 ± 4.4
335.14 K, x1 = 0.5981	284.55 ± 4.4
335.14 K, x1 = 0.7015	286 ± 4.4
335.14 K, x1 = 0.8023	285.89 ± 4.4
335.14 K, x1 = 0.9139	285.08 ± 4.4
335.14 K, x1 = 0.9609	284.15 ± 4.4
336.14 K, x1 = 0.0061	239.67 ± 3.7
336.14 K, x1 = 0.0249	240.6 ± 3.7
336.14 K, x1 = 0.0494	243.78 ± 3.8
